In patent US20170267727A1, “Conjugates of pH Low Insertion Peptide and Monomethyl Auristatins in the Treatment of Solid Tumors” (Lehigh University, priority 2016, published 2017):
Entries after “also recorded” stand apart in the source; their conditions may differ. Positions of bridges follow the written chain, without caps; N, C: chain ends. Non-standard residues stand in square brackets, D forms with d. Residues, ends and D or L forms follow the SMILES beside them. Chains are numbered I, II in the order given. No end group written: not given here. *: point of attachment. Dolaproine = CO[C@@H]([C@@H]1CCCN1)[C@@H](C)C(=O)O; Dil = CC[C@H](C)[C@H](NC)[C@@H](CC(=O)O)OC; X1 = C[C@@H](N*)[C@@H](O)c1ccccc1; NMeV = CN[C@H](C(=O)O)C(C)C; Mpa = O=C(O)CCS

Tests used:
[1] = cited from earlier work
[2] = cited from earlier work; remark: listed apart in the source
[3] = system: MDA-MB-231 cells; experiment: Anti-proliferation Assay (2 hours treatment at pH 7.4 or 5.0, 72 hours growth, MTT)
Experimental: (§1) FIG. 3A, FIG. 3C and FIG. 3E show HeLa cells treated with pHLIP(WT)-MMAE, pHLIP(D25E)-MMAE, and MMAE(linker), respectively. FIG. 3B, FIG. 3D and FIG. 3F show MDA-MB-231 cells treated with pHLIP(WT)-MMAE, pHLIP(D25E)-MMAE, and MMAE(linker), respectively. Black columns represent cells treated at pH 7.4 and cells treated at low pH are shown in grey. For each condition, 3,000 cells/well (96-well plate) were seeded, allowed to adhere overnight, treated for 2 hours, washed once with media and grown for 72 hour in complete medium at physiologic pH. Cell viability was assessed with the MTT assay. All measurements were normalized to the media control (0 μM, pH 7.4), as 100% cell viability. Results are shown as mean±SD (n=6-9).
(§2) Anti-proliferation Assay. HeLa and MDA-MB-231 cells were seeded in 96-well plates at a density of 3,000 cells/well and incubated overnight. Before treatment, construct aliquots were solubilized in an appropriate volume of DMEM without FBS (pH 7.4)—so that upon pH adjustment the desired treatment concentration is obtained—and gently sonicated for 30-60 seconds using a bath sonicator (Branson Ultrasonics). After removal of cell media, this treatment solution was added to each well and incubated at 37° C. for 5-10 minutes. The pH was then adjusted to the desired value using a pre-established volume of DMEM, pH 2.0 buffered with citric acid (final volume=50 μL) and the plate was incubated at 37° C. for 2 hours. After treatment, the media was removed, cells were washed once with 100 μL of complete DMEM, and 100 μL of complete medium was added to each well before returning the plate to the incubator. Treatment solutions were collected and their pH values measured using a micro-combination pH probe (Microelectrodes, Inc.). […] Cell viability was determined after 72 hours using the colorimetric MTT assay. Briefly, 10 μL of a 5 mg/mL MTT stock solution was added to the treated cells and incubated for 2 hours at 37° C. The resulting formazan crystals were solubilized in 200 μL DMSO and the absorbance measured at 580 nm using an Infinite 200 PRO microplate reader (Tecan). Cell viability was calculated against control cells treated with media at physiologic pH.
(§3) Inhibition of Cell Proliferation. The ability of pHLIP to move MMAE across the cell membrane and to inhibit cancer cell proliferation in concentration and pH-dependent manners was evaluated. Cell treatments for both pHLIP(WT)-MMAE and pHLIP(D25E)-MMAE constructs were carried out with conjugate concentrations ranging from 1.25 to 10 μM at either pH 7.4 or 5.0. After a 2-hour incubation at 37° C., the treatment media was replaced by fresh media, and cells were grown for an additional 72 hours at normal pH before assessing cell viability using the MTT assay. […] This treatment protocol is quite stringent when compared to the typical multi-days exposure treatments used with free drugs (FIG. 6A and FIG. 6B).

[4] = system: HeLa cells; experiment: as above
Experimental: as §1
HeLa cells treated with pHLIP(WT)-MMAF (FIG. 9A), pHLIP(D25E)-MMAF (FIG. 9B), pHLIP(P20G)-MMAF (FIG. 9C), and pHLIP(R11Q)-MMAF (FIG. 9D). Circles represent cells treated at pH 7.4 and squares represent cells treated at pH 5.0. Results are shown as the mean±SEM (n=6-9).
as §2, §3

[5] = system: HeLa cells; experiment: Cell proliferation with free drug, 72 hours incubation, MTT assay; format: cell-based, Human; details: incubated with the cells for 72 hours; read-out: IC50 against HeLa cells
Experimental: FIG. 6A and FIG. 6B show inhibition of HeLa (FIG. 6A) and MDA-MB-231 (FIG. 6B) cell proliferation by free MMAE modified with a succinimide nitrophenyl-based linker (MMAE+linker) and by unmodified MMAE. For each cell assay 3,000 cells/well were seeded, allowed to adhere overnight and incubated with either compound for 72 hours in complete medium at physiologic pH. Cell viability was determined with the MTT assay. All measurements were normalized to the 1% DMSO controls. Results are shown as mean±SD (n=6). Data were fitted with a sigmoidal dose response function in Prism for Mac (GraphPad Software, Inc.).
Cell Culture. Human cervical adenocarcinoma HeLa cells and human breast adenocarcinoma MDA-MB-231 cells were cultured in Dulbecco's modified Eagle's medium (DMEM supplemented with 10% FBS, 100 U/mL penicillin, and 0.1 mg/mL streptomycin in a humidified atmosphere of 5% CO2 at 37° C.

[6] = system: HeLa tumors; details: end of the three week study, n=8
Experimental: HeLa (ATCC#CCL-2) were injected subcutaneously into the inguinal space of female Ncr nu/nu mice. Tumors were allowed to develop until they were approximately 75 mm^3 in size. […] On days 1, 3, 5, and 8, animals were injected intravenously with 200 microliters of either pHLIP-MMAF (20 microM in PBS+1% DMSO) or vehicle control (PBS+1% DMSO). Tumors were measured with calipers on routine basis for approximately 3 weeks and tumor volumes calculated with the formula: length×width×(height×0.5). Animals were euthanized when tumors reached a volume of 500 mm^3. FIG. 10A depicts tumor growth as a function of initial tumor volume. FIG. 10B depicts tumor volume. FIG. 10C depicts overall survival.
HeLa (ATCC#: CCL-2) were injected subcutaneously (s.c.) into the inguinal space of female Ncr nu/nu mice. Tumors were allowed to develop until they were approximately 75 mm^3 in size. […] On days 1, 3, 5, and 8 animals were injected intravenously with 200 microliters of either pHLIP-MMAF (20 microM in PBS+1% DMSO) or vehicle control (PBS+1% DMSO). Tumors were measured with calipers on routine basis for approximately 3 weeks and tumor volumes calculated with the formula Length×Width×(Height×0.5). […] A tumor volume of 500 mm^3 was prospectively set as the stopping point for this study.

[7] = system: A431 tumors; details: i.p., 1 mg/kg
[8] = Toxicity Studies (CBC and comprehensive metabolic panel); format: in vivo; details: four 1 mg/kg injections on days 1, 3, 5 and 7; monitored 2 weeks after final injection
Experimental: Four one milligram/kilogram (1 mg/kg) injections of pHLIP(WT)-MMAF are given to subjects on days 1, 3, 5 and 7. Overall health, liver and kidney function, and electrolytes are monitored using a complete blood count (CBC) and comprehensive metabolic panel, for a period of 2 weeks after the final injection.

[9] = cited from earlier work; remark: listed apart in the source
[10] = 2.5 μL (so in the source), low pH

Compound: CC[C@H](C)[C@@H]([C@@H](CC(=O)N1CCC[C@H]1[C@H](OC)[C@@H](C)C(=O)N[C@@H](Cc1ccccc1)c1nccs1)OC)N(C)C(=O)[C@@H](NC(=O)[C@H](C(C)C)N(C)C)C(C)C [Dolastatin 10]
- IC50 [1]: 0.1 nM
- Log P o/w [2]: 3.4

Compound: CC[C@H](C)[C@@H]([C@@H](CC(=O)N1CCC[C@H]1[C@H](OC)[C@@H](C)C(=O)N[C@H](C)[C@@H](O)c1ccccc1)OC)N(C)C(=O)[C@@H](NC(=O)[C@@H](NC)C(C)C)C(C)C [MMAE, monomethyl auristatin E, reference compound] (H-[NMeV]V[Dil][Dolaproine]-X1)
- IC50 [1]: 0.1 to 2 nM
- cytotoxicity [3, 10]: 20-30%
- cytotoxicity [4, 10]: 20-30%
- cytotoxicity ([4]; physiological pH, 5 μM): about 70%
- Log P o/w [2]: 2.2
- IC50 [5]: ~4 nM

Compound: CC[C@H](C)[C@@H]([C@@H](CC(=O)N1CCC[C@H]1[C@H](OC)[C@@H](C)C(=O)N[C@@H](Cc1ccccc1)C(=O)O)OC)N(C)C(=O)[C@@H](NC(=O)[C@@H](NC)C(C)C)C(C)C [MMAF, monomethyl auristatin F] (H-[NMeV]V[Dil][Dolaproine]F-OH)
- IC50 [1]: 105 to 250 nM
- Log P o/w [2]: 0.7

Compound: CC[C@H](C)[C@@H]([C@@H](CC(=O)N1CCC[C@H]1[C@H](OC)[C@@H](C)C(=O)N[C@@H](Cc1ccccc1)C(=O)OC)OC)N(C)C(=O)[C@@H](NC(=O)[C@@H](NC)C(C)C)C(C)C [MMAF-Ome, monomethyl auristatin F-OMe] (H-[NMeV]V[Dil][Dolaproine]F-OMe)
- IC50 [1]: 0.001 nM
- Log P o/w [2]: 2.8

Compound: I: AAEQNPIYWARYADWLFTTPLLLLDLALLVDADEGTCG-NH2 / II: [Mpa][NMeV]V[Dil][Dolaproine]F (disulfide I:37-II:1; C-terminus assumed) [pHLIP(WT)-MMAF]
- animals removed for tumor size exceeding 500 mm^3 [6]: only a single animal
- effect on A431 tumors [7]: Analogous results were obtained
- improvement over treatments with pHLIP(WT)-MMAE [4]: ca. 100 fold
- cell killing ([4]; pH 7.4 versus pH 5.0): clear pH-selective and concentration-dependent killing
- overall health, liver and kidney function, electrolytes [8]: Clinically significant differences in overall health, liver and kidney function, and electrolytes were not observed

Compound: amanitin
- pKa of insertion [9]: 5.9

Compound: pHLIP(D25E) (AAEQNPIYWARYADWLFTTPLLLLELALLVDADEGTCG-NH2) [reference compound]
- effect of peptide alone on cell viability ([3]; 10 μM, pH 7.4 or pH 5.0): not cytotoxic; also recorded: neither pHLIP(WT) or pHLIP(D25E) peptides have any harmful effects
- effect of peptide alone on cell viability ([4]; 10 μM, pH 7.4 or pH 5.0): not cytotoxic; also recorded: neither pHLIP(WT) or pHLIP(D25E) peptides have any harmful effects
- pKa of insertion [9]: 6.49
